Where two headings read alike, the source gives them in different places. Bounds are passed on as bounds.

This assay deals with T1, Human complement C1s enzyme (Homo sapiens, UniProt P09871).
T1 construct: purified from human serum, Complement Technology, Inc; purchased Complement Technology, Inc; host or cells: human serum (plasma-derived natural protein)
T1 sequence (P09871 438-688 limits assumed): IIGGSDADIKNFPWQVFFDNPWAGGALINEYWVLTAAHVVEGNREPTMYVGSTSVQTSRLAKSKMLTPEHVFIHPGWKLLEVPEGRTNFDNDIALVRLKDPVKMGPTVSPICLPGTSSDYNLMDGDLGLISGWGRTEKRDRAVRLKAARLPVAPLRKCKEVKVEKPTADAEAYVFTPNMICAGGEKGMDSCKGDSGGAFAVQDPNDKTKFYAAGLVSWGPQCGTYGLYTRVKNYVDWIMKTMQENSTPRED
T1 sequence (P09871 16-437 partner limits assumed): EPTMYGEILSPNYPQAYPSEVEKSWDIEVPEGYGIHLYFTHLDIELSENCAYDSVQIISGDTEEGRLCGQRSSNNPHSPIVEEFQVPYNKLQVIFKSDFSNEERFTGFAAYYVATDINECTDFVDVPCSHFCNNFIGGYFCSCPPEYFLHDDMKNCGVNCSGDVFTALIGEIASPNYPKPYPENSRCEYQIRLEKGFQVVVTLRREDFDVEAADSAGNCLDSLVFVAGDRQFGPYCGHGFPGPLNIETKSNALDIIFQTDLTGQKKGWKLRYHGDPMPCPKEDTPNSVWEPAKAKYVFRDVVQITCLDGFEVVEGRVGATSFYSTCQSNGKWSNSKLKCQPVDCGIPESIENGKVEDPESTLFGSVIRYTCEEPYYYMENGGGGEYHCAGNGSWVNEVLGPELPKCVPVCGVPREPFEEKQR
The experiment in a line: Human C1s Enzyme Assay. It counts as biochemical. The following applies: C1s purified from human serum, 1.16 nM, substrate Z-L-Lys-SBzl, read-out: C1s Protease Activity. How it is done: Example 4. Human C1s Enzyme Assay
Human complement C1s enzyme (purified from human serum, Complement Technology, Inc.) at 1.16 nM final concentration is incubated with test compound at various concentrations for 5 min at room temperature in 50 mM Tris, 1 M NaCl, pH 7.5. A synthetic substrate Z-L-Lys-SBzl and DTNB (Ellman's reagent) are added to final concentrations of 100 μM each. Absorbance at 405 nm (A405) is recorded at 30 second intervals for 30 min using a microplate spectrophotometer. IC50 values are calculated by nonlinear regression of complement C1s reaction rates as a function of test compound concentration.

Turning to `CCCCCC(=O)NCC(=O)N1CCC[C@H]1C(=O)NCc1cc(C(=N)N)cs1` [Compound 82, (S)-N-((4-carbamimidoylthiophen-2-yl)methyl)-1-(hexanoylglycyl)pyrrolidine-2-carboxamide], the IC50 (Table 2) was in the range of 100 to 1000 nM.

Take `CN(C)CCCCC(=O)NCC(=O)N1CCC[C@H]1C(=O)NCc1cc(C(=N)N)cs1` [Compound 70, (S)-N-((4-carbamimidoylthiophen-2-yl)methyl)-1-((5-(dimethylamino)pentanoyl)glycyl)pyrrolidine-2-carboxamide]: the IC50 (Table 2) was more than 1000 nM.

Turning to `N=C(N)c1csc(CNC(=O)[C@@H]2CCCN2C(=O)CNC(=O)CCCCOc2ccccc2)c1` [Compound 68, (S)-N-((4-carbamimidoylthiophen-2-yl)methyl)-1-((5-phenoxypentanoyl)glycyl)pyrrolidine-2-carboxamide], the IC50 (Table 2) was less than 100 nM.

Turning to `NCCCCCNC(=O)[C@@H]1CC2(CN1C(=O)CNC(=O)c1ccc(Oc3ccccc3)cc1)OCCO2` [Compound 26, (8S)—N-(5-Aminopentyl)-7-{2-[(4-phenoxyphenyl)formamido]acetyl}-1,4-dioxa-7-azaspiro[4.4]nonane-8-carboxamide], the IC50 (Table 1) was more than 1000 nM.

On to `N=C(N)c1csc(CNC(=O)[C@@H]2C[C@H](Oc3ccc(F)cc3)CN2C(=O)CNC(=O)c2ccc(Oc3ccccc3)cc2)c1` [Compound 103, (2S,4S)-N-((4-carbamimidoylthiophen-2-yl)methyl)-4-(4-fluorophenoxy)-1-((4-phenoxybenzoyl)glycyl)pyrrolidine-2-carboxamide], for which the IC50 (Table 3) was less than 100 nM.

Consider `N=C(N)c1csc(CNC(=O)[C@@H]2CCCN2C(=O)COCc2ccc(Oc3ccccc3)cc2)c1` [Compound 38, (S)-N-((4-carbamimidoylthiophen-2-yl)methyl)-1-(2-((4-phenoxybenzyl)oxy)acetyl)pyrrolidine-2-carboxamide], for which, for the setting “Table 2”, the IC50 was 100 to 1000 nM.

Turning to `N=C(N)c1csc(CNC(=O)[C@@H]2CCCN2CCCCc2ccc(Oc3ccccc3)cc2)c1` [Compound 37, (S)-N-((4-carbamimidoylthiophen-2-yl)methyl)-1-(4-(4-phenoxyphenyl)butyl)pyrrolidine-2-carboxamide], the IC50 (Table 2) is more than 1000 nM.

Turning to `CC(N)c1csc(CNC(=O)[C@@H]2CCCN2C(=O)CNC(=O)c2ccc(Oc3ccccc3)cc2)c1` (stereo partly drawn) [Compound 60, (2S)-N-((4-(1-aminoethyl)thiophen-2-yl)methyl)-1-((4-phenoxybenzoyl)glycyl)pyrrolidine-2-carboxamide], the IC50 (Table 2) is more than 1000 nM.

On to `CCCCCCc1ccc(C(=O)NCC(=O)N2CCC[C@H]2C(=O)NCc2cc(C(=N)N)cs2)cc1` [Compound 75, (S)-N-((4-carbamimidoylthiophen-2-yl)methyl)-1-((4-hexylbenzoyl)glycyl)pyrrolidine-2-carboxamide], for which the IC50 (Table 2) is less than 100 nM.

Turning to `C[C@@]12C[C@@H]1N(C(=O)CNC(=O)c1ccc(Oc3ccccc3)cc1)[C@H](C(=O)NCc1cc(C#N)cs1)C2` [Compound 93, (1S,3S,5S)-N-((4-cyanothiophen-2-yl)methyl)-5-methyl-2-((4-phenoxybenzoyl)glycyl)-2-azabicyclo[3.1.0]hexane-3-carboxamide], under “Table 3”, the IC50 was more than 1000 nM.

As for `CO[C@H]1C[C@@H](C(=O)CNC(=O)c2ccc(Oc3ccccc3)cc2)[C@H](C(=O)NCc2cc(C(=N)N)cs2)C1` [Compound 35, N-(2-((1R,2R,4S)-2-(((4-carbamimidoylthiophen-2-yl)methyl)carbamoyl)-4-methoxycyclopentyl)-2-oxoethyl)-4-phenoxybenzamide], for the setting “Table 1”, the IC50 lay within 100 to 1000 nM.

Turning to `CCCCCc1cc(C(=O)NCC(=O)N2CCC[C@H]2C(=O)NCc2cc(C(=N)N)cs2)ccc1Oc1ccccc1` [Compound 42, (S)-N-((4-carbamimidoylthiophen-2-yl)methyl)-1-((3-pentyl-4-phenoxybenzoyl)glycyl)pyrrolidine-2-carboxamide], for the setting “Table 2”, the IC50 was less than 100 nM.

For `N=C(N)c1csc(CNC(=O)[C@@H]2C[C@@H](O)CN2C(=O)CNC(=O)c2ccc(Oc3ccccc3)cc2)c1` [Compound 31, (2S,4R)—N-[(4-carbamimidoylthiophen-2-yl)methyl]-4-hydroxy-1-{2-[(4-phenoxyphenyl)formamido]acetyl}pyrrolidine-2-carboxamide], the IC50 (Table 1) is less than 100 nM.

`N=C(N)c1csc(CNC(=O)[C@@H]2CCCN2C(=O)NNC(=O)c2ccc(Oc3ccccc3)cc2)c1` [Compound 36, (S)-N-((4-carbamimidoylthiophen-2-yl)methyl)-1-(2-(4-phenoxybenzoyl)hydrazine-1-carbonyl)pyrrolidine-2-carboxamide]: where the note is “Table 1”, the IC50 fell in the range of 100 to 1000 nM.

Turning to `CCCCCCCCCC(=O)NCC(=O)N1CCC[C@H]1C(=O)NCc1cc(C(=N)N)cs1` [Compound 86, (S)-N-((4-carbamimidoylthiophen-2-yl)methyl)-1-(decanoylglycyl)pyrrolidine-2-carboxamide], the IC50 (Table 2) was less than 100 nM.

As for `N=C(N)c1csc(CNC(=O)[C@@H]2CC(=O)CN2C(=O)CNC(=O)c2ccc(Oc3ccccc3)cc2)c1` [Compound 15, (2S)—N-[(4-Carbamimidoylthiophen-2-yl)methyl]-4-oxo-1-{2-[(4-phenoxyphenyl)formamido]acetyl}pyrrolidine-2-carboxamide], for the setting “Table 1”, the IC50 is less than 100 nM.

As to `N=C(N)c1csc(CNC(=O)[C@@H]2C[C@@H]3CCCC[C@@H]3N2C(=O)CNC(=O)c2ccc(Oc3ccccc3)cc2)c1` [Compound 102, (2S,3aS,7aS)-N-((4-carbamimidoylthiophen-2-yl)methyl)-1-((4-phenoxybenzoyl)glycyl)octahydro-1H-indole-2-carboxamide], under “Table 3”, the IC50 is less than 100 nM.

With `N=C(N)c1csc(CNC(=O)[C@@H]2CCCN2C(=O)CCCc2ccc(Oc3ccccc3)cc2)c1` [Compound 53, (S)-N-((4-carbamimidoylthiophen-2-yl)methyl)-1-(4-(4-phenoxyphenyl)butanoyl)pyrrolidine-2-carboxamide], for the setting “Table 2”, the IC50 is less than 100 nM.

For `N=C(N)c1csc(NC(=O)[C@@H]2CC3(CN2C(=O)CNC(=O)c2ccc(Oc4ccccc4)cc2)OCCO3)c1` [Compound 91, (S)-N-(4-carbamimidoylthiophen-2-yl)-7-((4-phenoxybenzoyl)glycyl)-1,4-dioxa-7-azaspiro[4.4]nonane-8-carboxamide], the IC50 (Table 3) is more than 1000 nM.

As to `N=C(N)c1ccc(CNC(=O)[C@@H]2CC3(CN2C(=O)CNC(=O)c2ccc(Oc4ccccc4)cc2)OCCO3)s1` [Compound 92, (S)-N-((5-carbamimidoylthiophen-2-yl)methyl)-7-((4-phenoxybenzoyl)glycyl)-1,4-dioxa-7-azaspiro[4.4]nonane-8-carboxamide], the IC50 (Table 3) is less than 100 nM.

On to `N=C(N)c1csc(CNC(=O)[C@@H]2CSCN2C(=O)CNC(=O)c2ccc(Oc3ccccc3)cc2)c1` [Compound 4, (4R)—N-[(4-Carbamimidoylthiophen-2-yl)methyl]-3-{2-[(4-phenoxyphenyl)formamido]acetyl}-1,3-thiazolidine-4-carboxamide], for which, where the note is “Table 1”, the IC50 is less than 100 nM.

As to `C[C@H](OCc1ccccc1)[C@H](OCc1ccccc1)[C@@H](OCc1ccccc1)[C@H](CN(CC(=O)N1CC2(C[C@H]1C(=O)NCc1nc(C(=N)N)cs1)OCCO2)C(=O)OCc1ccccc1)OCc1ccccc1` [Compound 89, benzyl (2-((S)-8-(((4-carbamimidoylthiazol-2-yl)methyl)carbamoyl)-1,4-dioxa-7-azaspiro[4.4]nonan-7-yl)-2-oxoethyl)((2S,3S,4S,5S)-2,3,4,5-tetrakis(benzyloxy)hexyl)carbamate], for the setting “Table 2”, the IC50 was more than 1000 nM.

Turning to `CO[C@@H]1C[C@@H](C(=O)NCc2cc(C(=N)N)cs2)N(C(=O)CNC(=O)c2ccc(Oc3ccccc3)cc2)C1` [Compound 32, (2S,4R)—N-[(4-carbamimidoylthiophen-2-yl)methyl]-4-methoxy-1-{2-[(4-phenoxyphenyl)formamido]acetyl}pyrrolidine-2-carboxamide], the IC50 (Table 1) was less than 100 nM.

`N=C(N)c1csc(CNC(=O)[C@@H]2CC3(CCCC3)CN2C(=O)CNC(=O)c2ccc(Oc3ccccc3)cc2)c1` [Compound 12, (3S)—N-[(4-Carbamimidoylthiophen-2-yl)methyl]-2-{2-[(4-phenoxyphenyl)formamido]acetyl}-2-azaspiro[4.4]nonane-3-carboxamide]: the IC50 (Table 1) is less than 100 nM.

For `N=C(N)c1cccc(CNC(=O)[C@@H]2CC3(CN2C(=O)CNC(=O)c2ccc(Oc4ccccc4)cc2)OCCO3)c1` [Compound 18, (8S)—N-[(3-Carbamimidoylphenyl)methyl]-7-{2-[(4-phenoxyphenyl)formamido]acetyl}-1,4-dioxa-7-azaspiro[4.4]nonane-8-carboxamide], under “Table 1”, the IC50 was more than 1000 nM.

Source of the values: patent publication US12479856B2, “Pharmaceutical compounds for the treatment of complement mediated disorders” (Achillion Pharmaceuticals, Inc., priority 2019, dated 2025).
